Measurements reported in PubChem BioAssay (NCI).
Several values for one entry are separate records, joined by “and”; a condition that tells them apart may be missing. Identical values can stand only once.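 Tested at 5 concentrations; 48 h exposure; 96-well plates; endpoints linearly interpolated, else capped at highest concentration. GI50 marks 50% less growth. TGI marks complete inhibition of growth.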

Assays:
Assay in all cases: NCI tumour cell line growth inhibition, 48 h
[1] = system: OVCAR-4 ovarian
[2] = system: COLO 205 colon
[3] = system: UACC-62 melanoma
[4] = system: A549 NSCLC
[5] = system: NCI-H460 lung
[6] = system: MDA-N
[7] = system: SK-MEL-2 melanoma
[8] = system: EKVX NSCLC
[9] = system: OVCAR-5 ovarian
[10] = system: CAKI-1 renal
[11] = system: IGROV1 ovarian
[12] = system: MDA-MB-231 breast
[13] = system: BT-549 breast
[14] = system: NCI-H522 lung
[15] = system: PC-3 prostate
[16] = system: SF-268 CNS
[17] = system: SF-295 CNS

| Compound | TGI [1] | TGI [2] | TGI [3] | TGI [4] | TGI [5] | TGI [6] | TGI [7] | TGI [8] | TGI [9] | TGI [10] | TGI [11] | TGI [12] | TGI [13] | TGI [14] | TGI [15] | TGI [16] | TGI [17] | GI50 [2] | GI50 [12] |
| --- | --- | --- | --- | --- | --- | --- | --- | --- | --- | --- | --- | --- | --- | --- | --- | --- | --- | --- | --- |
| CNc1ccc(Cl)cc1C(=O)N1CCC[C@H]1CO | > 100 µM | > 100 µM | > 100 µM | > 100 µM | > 100 µM | > 100 µM | > 100 µM | > 100 µM | > 100 µM | > 100 µM | > 100 µM | > 100 µM | > 100 µM | > 100 µM | > 100 µM | > 100 µM | > 100 µM | – | – |
| CCCCCCCCCCCCCCCCCCOC(COP(=O)(O)OCC1OC(n2cc(F)c(=O)[nH]c2=O)CC1O)COP(=O)(O)OCC1OC(n2ccc(N)nc2=O)C(O)C1O (stereo unspecified) | > 100 µM | > 72.9 µM | > 100 µM | > 63.6 µM | > 65.3 µM | > 100 µM | > 100 µM | > 100 µM | > 100 µM | > 100 µM | > 100 µM | > 100 µM | > 93.2 µM | > 100 µM | 78.8 µM | > 75 µM | > 100 µM | – | – |
| C#C[C@@H](OC(=O)c1ccc([N+](=O)[O-])cc1)[C@@H]1C[C@H]2O[C@@H]([C@H](C/C=C/CC)OC(=O)c3ccc([N+](=O)[O-])cc3)C[C@H]2O1 | > 100 µM | > 100 µM | > 100 µM | > 100 µM | > 100 µM | > 100 µM | > 100 µM | > 100 µM | > 100 µM | > 100 µM | > 100 µM | > 100 µM | > 100 µM | > 100 µM | > 100 µM | > 100 µM | > 100 µM | – | – |
| Clc1ccc(C2=Cc3nc2c(-c2ccccc2)c2ccc([nH]2)c(-c2ccccc2)c2nc(c(-c4ccccc4)c4ccc([nH]4)c3-c3ccccc3)C=C2)cc1 | > 62.5 µM | > 62.5 µM | > 62.5 µM | > 62.5 µM | > 62.5 µM | > 62.5 µM | > 62.5 µM | > 62.5 µM | > 62.5 µM | 49.9 µM | > 62.5 µM | > 62.5 µM | > 62.5 µM | > 62.5 µM | > 62.5 µM | > 62.5 µM | > 62.5 µM | – | – |
| C/C(=N\NC(N)=S)C(CN1CCCCC1)C(C1=C(O)c2ccccc2OC1)c1ccccc1 (stereo unspecified) | > 100 µM | > 100 µM | > 100 µM | > 100 µM | > 100 µM | > 100 µM | > 100 µM | > 100 µM | > 100 µM | > 100 µM | > 100 µM | > 100 µM | > 100 µM | > 100 µM | > 100 µM | > 100 µM | > 100 µM | – | – |
| CC(=O)OC1OC(C2c3cccc(O)c3C(=O)c3c(O)cc(CO)cc32)C(O)C(O)C1O (stereo unspecified) | > 100 µM | 7.63 µM | 16.6 µM and 17.7 µM | 21.2 µM and 29.5 µM | 13.4 µM and 12.4 µM | 13.5 µM and 8.28 µM | 6.11 µM and 5.71 µM | 36.8 µM and 26 µM | 11.7 µM and 18.1 µM | 7.51 µM and 7.82 µM | 20.8 µM and 21.1 µM | 7.54 µM and 8.88 µM | 22.6 µM and 47.1 µM | 18.8 µM and 16.7 µM | 10.5 µM and 12.4 µM | 21.8 µM and 33.6 µM | 10.5 µM and 22 µM | 2.7 µM | 1.51 µM and 3.4 µM |
| COc1ccc(N2C(=O)C3c4[nH]c5ccc(OC)cc5c4C4CCC(c5ccccc5)CC4C3C2=O)cc1 (stereo unspecified) | 19.3 µM | > 86.1 µM | 36.4 µM | 40.3 µM | 21.7 µM | > 66.7 µM | 47.4 µM | 52 µM | > 64.5 µM | 40.6 µM | 62.2 µM | 25 µM | 58.7 µM | 27.4 µM | > 75.7 µM | > 46.6 µM | 24.2 µM | – | – |
| CCC1=NC(N/N=C/c2ccco2)=N/C1=C\c1ccco1 | > 100 µM | > 100 µM | > 100 µM | > 100 µM | > 100 µM | > 100 µM | > 100 µM | > 100 µM | > 100 µM | > 100 µM | > 100 µM | > 100 µM | > 100 µM | > 100 µM | > 100 µM | > 100 µM | > 100 µM | – | – |
| Cc1cc(=O)[nH]c(Sc2ccc([N+](=O)[O-])cc2[N+](=O)[O-])n1 | > 56.1 µM | 15.7 µM | 41.4 µM | 40.2 µM | > 59.5 µM | 40.8 µM | 46.4 µM | > 57.2 µM | 35.2 µM | 28.9 µM | > 100 µM | 46.9 µM | 26.8 µM | 22.9 µM | 49.7 µM | > 54.3 µM | > 76.4 µM | – | – |
| CCOC1Oc2ccccc2-c2nc(N)ncc21 (stereo unspecified) | > 100 µM | > 100 µM | > 100 µM | > 100 µM | > 100 µM | > 100 µM | > 100 µM | > 100 µM | > 100 µM | > 100 µM | > 100 µM | > 100 µM | > 100 µM | 72.8 µM | > 100 µM | > 100 µM | > 100 µM | – | – |
| COc1ccccc1CC1(O)OC(=O)c2ccccc21 (stereo unspecified) | > 100 µM | > 100 µM | > 100 µM | > 100 µM | > 100 µM | > 100 µM | > 100 µM | > 100 µM | > 100 µM | > 100 µM | > 100 µM | > 100 µM | > 100 µM | > 100 µM | > 100 µM | > 100 µM | > 100 µM | – | – |
| COc1c(OC)c(OC)c2c(=O)c(OC)c(-c3ccc4c(c3)OCO4)oc2c1OC | > 100 µM | > 100 µM | > 100 µM | > 100 µM | > 100 µM | > 100 µM | > 100 µM | > 100 µM | > 100 µM | > 100 µM | > 100 µM | > 100 µM | > 100 µM | > 100 µM | > 100 µM | > 100 µM | > 100 µM | – | – |
